Data reported in patent publication US20250230154A1, “COMPOUND HAVING SHP2 PROTEIN DEGRADING ACTIVITY, AND MEDICAL USES THEREOF” (UBIX THERAPEUTICS, INC., priority 2021, published 2025).

Key:
SHP2 protein [1] = biological target: T1, SHP2 protein (Homo sapiens, UniProt Q06124); experiment: Measurement of SHP2 protein degradation in KYSE-520 cells (western blotting); type: cell-based; design: endogenous in cells; details: 24 hours
T1 sequence (Q06124 1-593): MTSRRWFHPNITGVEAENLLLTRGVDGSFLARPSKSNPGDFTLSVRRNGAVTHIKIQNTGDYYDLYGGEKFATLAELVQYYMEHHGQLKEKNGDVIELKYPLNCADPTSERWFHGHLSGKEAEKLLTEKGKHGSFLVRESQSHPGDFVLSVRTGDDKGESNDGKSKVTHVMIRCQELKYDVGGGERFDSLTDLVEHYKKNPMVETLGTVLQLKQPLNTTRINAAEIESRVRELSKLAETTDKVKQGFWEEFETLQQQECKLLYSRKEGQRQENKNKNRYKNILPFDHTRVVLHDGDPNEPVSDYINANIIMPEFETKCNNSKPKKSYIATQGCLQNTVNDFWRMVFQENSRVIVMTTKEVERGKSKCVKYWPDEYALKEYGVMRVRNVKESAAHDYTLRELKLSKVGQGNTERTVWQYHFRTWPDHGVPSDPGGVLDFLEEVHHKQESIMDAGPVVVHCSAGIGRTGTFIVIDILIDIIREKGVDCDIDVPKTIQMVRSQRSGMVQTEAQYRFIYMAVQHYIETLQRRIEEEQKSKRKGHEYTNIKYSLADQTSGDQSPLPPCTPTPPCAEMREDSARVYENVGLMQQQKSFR
Protocol: Experimental Example 1: Measurement of SHP2 Protein Degradation in KYSE-520 Cells
KYSE-520 cells were treated with the synthesized Example compound, and the amount of SHP2 protein present in the cells was measured using western blotting detection. The protocol of the experiment conducted using KYSE-520 cells was as follows:
[Culture] KYSE-520 cells resuspended in RPMI1640 MEDIUM (Hyclone, SH30027.01) containing 5% FBS (Hyclone, SV30207.02) and 1% Penicillin-streptomycin (Welgene, LS 202-02) were seeded at a density of 2.5×10^5/well in a 6-well plate in an amount of 2 ml each and incubated for 2 days.
[Compound treatment] […] After 24 hours, cells were harvested. For the negative control group, DMSO diluted 1/10 to the media (3 mL DMSO+27 mL media) was added.
[Cell Lysis and Protein Quantification] Lysis buffer was prepared as follows: […] of RIPA buffer (Biosesang, RC2038-050-00)+0.5 mM PMSF (SIGMA, P7626)+1× Protease/Phosphatase Inhibitor (Cell signaling, 5872S) per well was added and placed on ice for 30 minutes (vortexing at 0 and 30 minutes, respectively). After sonication process (10 seconds pulse, 30 seconds rest, 5 cycles, 70% amplification), centrifugation (15000 g, 15 min, 4° C.) was performed, and then only the supernatant was taken and transferred to a new microtube. The sample was diluted ¼ with RIPA buffer in a 96-well plate, and mixed with A:B=50:1 of the BCA Protein Assay Kit (iNtRON, 21071). […] each of the mixture was left at 37° C. for 30 minutes, and cooled for 10 minutes. Then, absorbance was measured at 562 nm with the SYNERGY H1 microplate reader from BioTek. After making a sample by quantifying the protein with the measured value, boiling was performed at 70° C. for 10 minutes. At this time, the sample buffer used was a mixture of NuPAGE or Bolt 4× sample buffer (Invitrogen) and each 10× sample reducing agent according to the gel to be used, and RIPA buffer was used for protein dilution.
[Western blotting detection method] The same amount of sample was loaded on NuPAGE or Bolt Bis-tris 4-12% gradient gel and run (200 V, 35 minutes). It was transferred to 0.2 mm NC membrane with Trans-blot Turbo (BIO-RAD) (1.3 A constant, 25 V limit, 15 minutes). Blocking was performed at room temperature for 1 hour with Skim milk or Intercept Blocking Buffer (LI-COR, 927-60001):0.1% TBST=1:1. Anti SHPTP2 Mouse (1:500 in 5% Skim milk/TBST, size: 70 kDa, Santacruz sc-7384) was incubated overnight at 4° C., and Anti GAPDH Rabbit (1:2,000 in 5% BSA/0.2% TBST, size: 37 kDa, CST #2118) was incubated at room temperature for 1 hour 30 minutes or 3 hours. It was washed 3 times for 5 minutes each with 0.2% TBST washing buffer. Secondary antibody Anti-Rabbit IgG (1:5,000 in 5% Skim milk/0.2% TBST, CST), and IRDye® 680RD Goat anti-Rabbit IgG Secondary Antibody (1:10,000 in 5% BSA/0.2% TBST, LI-COR 926-68071) were incubated for 45 minutes on a rocker at room temperature. It was washed 5 times for 5 minutes each with 0.2% TBST washing buffer and detected with LI-COR's Odyssey. At this time, SHPTP2 was detected using SuperSignal West Pico PLUS Chemiluminescent Substrate, and house-keeping genes were also detected.
In the results of Table 4 below, Compounds 1-7, 13-19, and 21-26 are results in KYSE-520 cells, and the others are results in MV-4-11 cells.

SHP2 protein [2] = biological target: T1, SHP2 protein; experiment: Measurement of SHP2 protein degradation in MV-4-11 cells (western blotting); type: cell-based; design: endogenous in cells; host or cells: MV-4-11; details: MV-4-11 cells, 24 hours
In short: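 SHP2 protein levels were assessed by western blotting in MV-4-11 cells after a 24 hour compound treatment. Lysates were sonicated, centrifuged, normalized by BCA assay at 562 nm, run on Bis-tris 4-12% gels, transferred to NC membrane, probed with anti-SHPTP2 (70 kDa) and anti-GAPDH (37 kDa) antibodies, and detected on LI-COR Odyssey.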

Structure (SMILES)	SHP2 degradation (%) 10 nM (SHP2 protein [1]) [%]	SHP2 degradation (%) 100 nM (SHP2 protein [1]) [%]	SHP2 degradation (%) 1000 nM (SHP2 protein [1]) [%]	SHP2 degradation (%) 10 nM (SHP2 protein [2]) [%]	SHP2 degradation (%) 100 nM (SHP2 protein [2]) [%]	SHP2 degradation (%) 1000 nM (SHP2 protein [2]; 1000 nM) [%]
Cc1ncsc1-c1ccc(CNC(=O)[C@@H]2C[C@@H](O)CN2C(=O)[C@@H](NC(=O)C2(F)CC2)C(C)(C)C)c(OCCCCCCN2CCC(C(=O)Nc3cccc(Sc4cnc(N5CCC(C)(CN)CC5)cn4)c3Cl)CC2)c1 [Example 3, N-(3-((5-(4-(aminomethyl)-4-methylpiperidin-1-yl)pyrazin-2-yl)thio)-2-chlorophenyl)-1-(6-(2-(((2S,4R)-1-((S)-2-(1-fluorocyclopropane-1-carboxamido)-3,3-dimethylbutanoyl)-4-hydroxypyrrolidine-2-carboxamido)methyl)-5-(4-methylthiazol-5-yl)phenoxy)hexyl)piperidine-4-carboxamide]	−15.6	48.8	84.0	–	–	–
Cc1ncsc1-c1ccc(CNC(=O)[C@@H]2C[C@@H](O)CN2C(=O)[C@@H](NC(=O)C2(F)CC2)C(C)(C)C)c(OCCCN2CCC(CC(=O)Nc3cccc(Sc4cnc(N5CCC(C)(CN)CC5)cn4)c3Cl)CC2)c1 [Example 6, (2S,4R)—N-(2-(3-(4-(2-((3-((5-(4-(aminomethyl)-4-methylpiperidin-1-yl)pyrazin-2-yl)thio)-2-chlorophenyl)amino)-2-oxoethyl)piperidin-1-yl)propoxy)-4-(4-methylthiazol-5-yl)benzyl)-1-((S)-2-(1-fluorocyclopropane-1-carboxamido)-3,3-dimethylbutanoyl)-4-hydroxypyrrolidine-2-carboxamide]	19.5	82.4	95.0	–	–	–
Cc1ncsc1-c1ccc(CNC(=O)[C@@H]2C[C@@H](O)CN2C(=O)[C@@H](NC(=O)C2(F)CC2)C(C)(C)C)c(OCCN2CCC(CCC(=O)Nc3cccc(Sc4cnc(N5CCC(C)(CN)CC5)cn4)c3Cl)CC2)c1 [Example 13, (2S,4R)—N-(2-(2-(4-(3-((3-((5-(4-(aminomethyl)-4-methylpiperidin-1-yl)pyrazin-2-yl)thio)-2-chlorophenyl)amino)-3-oxopropyl)piperidin-1-yl)ethoxy)-4-(4-methylthiazol-5-yl)benzyl)-1-((S)-2-(1-fluorocyclopropane-1-carboxamido)-3,3-dimethylbutanoyl)-4-hydroxypyrrolidine-2-carboxamide]	−6.1	49.6	69.2	–	–	–
Cc1ncsc1-c1ccc(CNC(=O)[C@@H]2C[C@@H](O)CN2C(=O)[C@@H](NC(=O)C2(F)CC2)C(C)(C)C)c(OCCCCN2CCC(C(=O)Nc3cccc(Sc4cnc(N5CCC(C)(CN)CC5)cn4)c3Cl)CC2)c1 [Example 2, N-(3-((5-(4-(aminomethyl)-4-methylpiperidin-1-yl)pyrazin-2-yl)thio)-2-chlorophenyl)-1-(4-(2-(((2S,4R)-1-((S)-2-(1-fluorocyclopropane-1-carboxamido)-3,3-dimethylbutanoyl)-4-hydroxypyrrolidine-2-carboxamido)methyl)-5-(4-methylthiazol-5-yl)phenoxy)butyl)piperidine-4-carboxamide]	23.3	81.8	94.3	–	–	–
Cc1ncsc1-c1ccc(CNC(=O)[C@@H]2C[C@@H](O)CN2C(=O)[C@@H](NC(=O)C2(F)CC2)C(C)(C)C)c(OCCCCN2CCC(CCCC(=O)Nc3cccc(Sc4cnc(N5CCC(C)(CN)CC5)cn4)c3Cl)CC2)c1 [Example 17, (2S,4R)—N-(2-(4-(4-(4-((3-((5-(4-(aminomethyl)-4-methylpiperidin-1-yl)pyrazin-2-yl)thio)-2-chlorophenyl)amino)-4-oxobutyl)piperidin-1-yl)butoxy)-4-(4-methylthiazol-5-yl)benzyl)-1-((S)-2-(1-fluorocyclopropane-1-carboxamido)-3,3-dimethylbutanoyl)-4-hydroxypyrrolidine-2-carboxamide]	–	71.8	94.9	–	–	–
CC(=O)N[C@H](C(=O)N1C[C@H](O)C[C@H]1C(=O)NCc1ccc(-c2scnc2C)cc1OCCCN1CCC(CC(=O)Nc2cccc(Sc3cnc(N4CCC(C)(CN)CC4)cn3)c2Cl)CC1)C(C)(C)C [Example 12, (2S,4R)-1-((S)-2-acetamido-3,3-dimethylbutanoyl)-N-(2-(3-(4-(2-((3-((5-(4-(aminomethyl)-4-methylpiperidin-1-yl)pyrazin-2-yl)thio)-2-chlorophenyl)amino)-2-oxoethyl)piperidin-1-yl)propoxy)-4-(4-methylthiazol-5-yl)benzyl)-4-hydroxypyrrolidine-2-carboxamide]	–	–	–	23.9	88.4	93.3
Cc1ncsc1-c1ccc(CNC(=O)[C@@H]2C[C@@H](O)CN2C(=O)[C@@H](NC(=O)C2(F)CC2)C(C)(C)C)c(OCCN2CCN(C(=O)CC(=O)Nc3cccc(Sc4ncc(N5CCC(C)(CN)CC5)nc4N)c3Cl)CC2)c1 [Example 55, (2S,4R)—N-(2-(2-(4-(3-((3-((3-amino-5-(4-(aminomethyl)-4-methylpiperidin-1-yl)pyrazin-2-yl)thio)-2-chlorophenyl)amino)-3-oxopropanoyl)piperazin-1-yl)ethoxy)-4-(4-methylthiazol-5-yl)benzyl)-1-((S)-2-(1-fluorocyclopropane-1-carboxamido)-3,3-dimethylbutanoyl)-4-hydroxypyrrolidine-2-carboxamide]	–	–	–	85.9	97.8	–
Cc1ncsc1-c1ccc(CNC(=O)[C@@H]2C[C@@H](O)CN2C(=O)[C@@H](NC(=O)C2(F)CC2)C(C)(C)C)c(OCCCN2CCN(C(=O)CC(=O)Nc3cccc(Sc4cnc(N5CCC(C)(CN)CC5)cn4)c3Cl)[C@@H](C)C2)c1 [Example 64, (2S,4R)—N-(2-(3-((S)-4-(3-((3-((5-(4-(aminomethyl)-4-methylpiperidin-1-yl)pyrazin-2-yl)thio)-2-chlorophenyl)amino)-3-oxopropanoyl)-3-methylpiperazin-1-yl)propoxy)-4-(4-methylthiazol-5-yl)benzyl)-1-((S)-2-(1-fluorocyclopropane-1-carboxamido)-3,3-dimethylbutanoyl)-4-hydroxypyrrolidine-2-carboxamide]	–	–	–	45.9	96.6	–
